In one data set the test system is anaesthetised rats. Briefly: intravenous toxicity in anaesthetised rats. Type of data set: in vivo. As to conditions: two anaesthetised rats, ten times the dose giving approximate 50% inhibition of gastric secretion in the anaesthetised rat. The protocol:
(§1) No overt toxicity or side effects were noted during the rat or dog tests. The compound 4-[3-(4-[2-(2,2,2-trifluoroethyl)guanidino]pyrimid-2-ylthio)propyl]-imidazole was administered intravenously to groups of two anaesthetised rats and four conscious mice at doses which were respectively ten times and one hundred times the dose, in mg./kg., which produced an approximate 50% inhibition of gastric secretion in the anaesthetised rat.

The test system of a further data set is conscious mice. The experiment in a line: intravenous toxicity in conscious mice. The data set is classed as in vivo. As to conditions: four conscious mice, one hundred times the dose giving approximate 50% inhibition of gastric secretion in the anaesthetised rat. The protocol: as §1

The structures appear in SMILES notation.

With `NC(=NCC(F)(F)F)Nc1ccnc(SCCCc2c[nH]cn2)n1.O=C(O)/C=C\C(=O)O` [Example 2, 4-[3-(4-[2-(2,2,2-trifluoroethyl)guanidino]pyrimid-2-ylthio)propyl]imidazole dihydrogen maleate], the toxic symptoms result in the data set on anaesthetised rats and in the data set with conscious mice was “No toxic symptoms were noted” throughout.

The values above are taken from US4463005A, “Bicyclic guanidines” (Imperial Chemical Industries PLC, priority 1981, dated 1984).
